According to US20050282824A1, “Substituted pyrimidines as inhibitors of bacterial type III protein secretion systems” (priority 2004, published 2005):

What was measured:
Format in all cases: cell-based
[1] = tested on: SPI1 type III protein secretion of SopE'-'Bla by Salmonella enterica; assay: Primary assay: Type III protein secretion of the chimeric SopE'-'Bla polypeptide by Salmonella enterica; details: read-out: SopE IC50(uM)
Outline: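 S. enterica grown under SPI1-favouring conditions was induced to express SopE′-′Bla (SopE secretion signal fused to signal-less TEM-1 β-lactamase) and cultured with or without compound for a set time. Secreted reporter was quantified by colorimetric hydrolysis of cell-impermeant nitrocefin added to the cultures.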

[2] = tested on: Type III protein secretion of ExoU by P. aeruginosa PA103; assay: Tertiary assay: Type III-dependent secretion of ExoU by P. aeruginosa PA103; details: Pseudomonas aeruginosa, read-out: ExoU IC50(uM)
Outline: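 PA103 grown in deferrated medium with nitrilotriacetic acid to induce Type III secretion, with or without inhibitor, over a prolonged growth period. Supernatant proteins concentrated by ammonium sulfate precipitation, separated by SDS-PAGE, Colloidal Blue-stained; 73.9 kDa ExoU band quantified by imaging relative to untreated controls.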

[3] = tested on: SPI1 type III protein secretion of SipB by S. enterica; assay: Secondary assay: Type III-dependent protein secretion of the SipB polypeptide by S. enterica; details: Salmonella enterica, read-out: SipB IC50(uM)
Description: Secondary assay: Type III-dependent protein secretion of the SipB polypeptide by S. enterica. The SipB protein of S. enterica is another effector of the SPI1 type III protein secretion system from S. enterica. In this cell-based procedure, the Type III-dependent secretion of SipB from the bacterial cytoplasm to the extracellular medium was measured through its reactivity with a cognate mouse monoclonal.
Salmonella enterica cells growing either in the presence or in the absence of inhibitors are induced for the production of SipB. Following an established period of growth the cells are sedimented and the amount of SipB present in the supernatant is quantified with a scanning imager following application of immunoblot techniques. Detection may employ an anti-SipB mouse monoclonal antibody (e.g., obtained from Jorge Galan, SUNY at Stony Brook, N.Y.) followed by treatment with commercially available sheep anti-mouse polyclonal antibody conjugated with horseradish peroxidase. Thereafter the membrane is treated with a peroxidase chemiluminescent substrate and exposed to film for an appropriate exposure time. Inhibition may be measured relative to untreated controls.

| Compound | IC50 [1] [µM] | IC50 [2] [µM] | IC50 [3] [µM] |
| --- | --- | --- | --- |
| Cc1cc(C(=O)N[C@@H](COCc2ccccc2)C(=O)O)nc(-c2ccc(-c3ccccc3)cc2)n1 [Compound 36, (S)-3-Benzyloxy-2-[(2-biphenyl-4-yl-6-methyl-pyrimidine-4-carbonyl)amino]-propionic acid] | 32.7 | > 100 | 79.6 |
| O=C(NC(Cc1ccc(Cl)cc1)C(=O)O)c1cc(N2CCN(c3nccc(C(F)(F)F)n3)CC2)nc(-c2ccc(F)cc2)n1 (stereo not drawn) [Compound 56, 3-(4-Chlorophenyl)-2-({2-(4-fluorophenyl)-6-[4-(4-trifluoromethylpyrimidin-2-yl)-piperazin-1-yl]pyrimidine-4-carbonyl}amino)propionic acid] | 2.2 | 55.4 | 4.5 |
| O=C(N[C@@H](COCc1ccccc1)C(=O)O)c1cc(-c2ccc(Cl)c(Cl)c2)nc(N2CCN(c3ccccc3)CC2)n1 [Compound 32, (S)-3-Benzyloxy-2-{[6-(3,4-dichlorophenyl)-2-(4-phenyl-piperazin-1-yl)-pyrimidine-4-carbonyl]amino}propionic acid] | 3.2 | 40.7 | 5.7 |
| N#Cc1ccc(-c2nc(C(=O)N[C@@H](CSCc3ccccc3)C(=O)O)cc(N3CCN(c4ccccc4)CC3)n2)cc1 [Compound 25, (R)-3-Benzylsulfanyl-2-{[2-(4-cyanophenyl)-6-(4-phenyl-piperazin-1-yl)-pyrimidine-4-carbonyl]amino}propionic acid] | 6.5 | 57.2 | 51.9 |
| O=C(N[C@H](COCc1ccccc1)C(=O)O)c1cc(N2CCC(c3ccccc3)CC2)nc(-c2ccc(Cl)c(Cl)c2)n1 [Compound 11, (R)-3-Benzyloxy-2-{[2-(3,4-dichlorophenyl)-6-(4-phenylpiperidin-1-yl)-pyrimidine-4-carbonyl]amino}propionic acid] | 1.4 | 92.2 | 44.2 |
| O=C(N[C@@H](CSCc1ccccc1)C(=O)O)c1cc(N2CCC(c3ccccc3)CC2)nc(-c2ccc(C(F)(F)F)cc2)n1 [Compound 21, (R)-3-Benzylsulfanyl-2-{[6-(4-phenylpiperidin-1-yl)-2-(4-trifluoromethylphenyl)-pyrimidine-4-carbonyl]amino}propionic acid] | 3.6 | 39 | 24.8 |
| O=C(N[C@@H](CSCc1ccccc1)C(=O)O)c1cc(N2CCN(c3nccc(C(F)(F)F)n3)CC2)nc(-c2ccoc2)n1 [Compound 61, (R)-3-Benzylsulfanyl-2-({2-furan-3-yl-6-[4-(4-trifluoromethylpyrimidin-2-yl)-piperazin-1-yl]pyrimidine-4-carbonyl}amino)propionic acid] | 10.2 | > 100 | 43.2 |
| O=C(N[C@@H](CSCc1ccccc1)C(=O)O)c1cc(N2CCN(c3ccccc3)CC2)nc(-c2ccc(Cl)cc2)n1 [Compound 24, (R)-3-Benzylsulfanyl-2-{[2-(4-chlorophenyl)-6-(4-phenyl-piperazin-1-yl)-pyrimidine-4-carbonyl]amino}propionic acid] | 5.45 | 46.9 | 39.2 |
| CN(C)c1ccc(-c2nc(C(=O)N[C@@H](COCc3ccccc3)C(=O)O)cc(N3CCN(c4nccc(C(F)(F)F)n4)CC3)n2)cc1 [Compound 49, (S)-3-Benzyloxy-2-({2-(4-dimethylaminophenyl)-6-[4-(4-trifluoromethylpyrimidin-2-yl)piperazin-1-yl]pyrimidine-4-carbonyl}amino)propionic acid] | 5.9 | 92.6 | 7.2 |
| Cc1cc(C(=O)NC(Cc2ccc(Cl)cc2)C(=O)O)nc(-c2ccc(-c3ccccc3)cc2)n1 (stereo not drawn) [Compound 1, 2-[(2-Biphenyl-4-yl-6-methyl-pyrimidine-4-carbonyl)amino]-3-(4-chlorophenyl)-propionic acid] | 7.4 | 83.9 | 4.4 |
| O=C(N[C@@H](CSCc1ccccc1)C(=O)O)c1cc(N2CCN(c3ccccc3)CC2)nc(Cl)n1 [Compound 26, (R)-3-Benzylsulfanyl-2-{[2-chloro-6-(4-phenyl-piperazin-1-yl)pyrimidine-4-carbonyl]amino}propionic acid] | 50.1 | > 100 | 46.8 |
| O=C(N[C@@H](COCc1ccccc1)C(=O)O)c1cc(N2CCN(c3nccc(C(F)(F)F)n3)CC2)nc(-c2ccc([N+](=O)[O-])cc2)n1 [Compound 51, (S)-3-Benzyloxy-2-({2-(4-nitrophenyl)-6-[4-(4-trifluoromethylpyrimidin-2-yl)-piperazin-1-yl]pyrimidine-4-carbonyl}amino)propionic acid] | 1.9 | 55 | 84.5 |
| O=C(N[C@H](Cc1ccc(Cl)cc1)C(=O)O)c1cc(N2CCCc3ccccc32)nc(-c2ccc(Oc3ccccc3)cc2)n1 [Compound 16, (R)-3-(4-Chlorophenyl)-2-{[6-(3,4-dihydro-2H-quinolin-1-yl)-2-(4-phenoxy-phenyl)pyrimidine-4-carbonyl]amino}propionic acid] | 6.2 | 62.2 | 10.2 |
| CC1CCN(c2cc(C(=O)NC(Cc3ccc(Cl)cc3)C(=O)O)nc(-c3ccc(-c4ccccc4)cc3)n2)CC1 (stereo not drawn) [Compound 42, 2-{[2-Biphenyl-4-yl-6-(4-methylpiperidin-1-yl)pyrimidine-4-carbonyl]amino}-3-(4-chlorophenyl)propionic acid] | 4.8 | > 100 | 22.3 |
| CC1CCN(c2nc(C(=O)N[C@@H](COCc3ccccc3)C(=O)O)cc(N3CCN(c4nccc(C(F)(F)F)n4)CC3)n2)CC1 [Compound 47, (S)-3-Benzyloxy-2-({2-(4-methylpiperidin-1-yl)-6-[4-(4-trifluoromethylpyrimidin-2-yl)piperazin-1-yl]pyrimidine-4-carbonyl}amino)propionic acid] | 4.5 | > 100 | 10.4 |
| CC1CCN(c2nc(C(=O)NC(Cc3ccc(Cl)cc3)C(=O)O)cc(N3CCN(c4nccc(C(F)(F)F)n4)CC3)n2)CC1 (stereo not drawn) [Compound 48, 3-(4-Chlorophenyl)-2-({2-(4-methylpiperidin-1-yl)-6-[4-(4-trifluoromethyl-pyrimidin-yl)piperazin-1-yl]pyrimidine-4-carbonyl}amino)propionic acid] | 1.3 | > 100 | 40 |
| CC1CCN(c2nc(C(=O)N[C@@H](CSCc3ccccc3)C(=O)O)cc(N3CCN(c4ccccc4)CC3)n2)CC1 [Compound 27, (R)-3-Benzylsulfanyl-2-{[2-(4-methylpiperidin-1-yl)-6-(4-phenyl-piperazin-1-yl)-pyrimidine-4-carbonyl]amino}propionic acid] | 5.3 | > 100 | 8.8 |
| O=C(N[C@@H](CSCc1ccccc1)C(=O)O)c1cc(N2CCC(c3ccccc3)CC2)nc(-c2ccc(F)c(F)c2)n1 [Compound 18, (R)-3-Benzylsulfanyl-2-{[2-(3,4-difluorophenyl)-6-(4-phenylpiperidin-1-yl)-pyrimidine-4-carbonyl]amino}propionic acid] | 19 | 46.6 | 16.8 |
| CC1CCN(c2cc(C(=O)N[C@@H](COCc3ccccc3)C(=O)O)nc(-c3ccc(-c4ccccc4)cc3)n2)CC1 [Compound 41, (S)-3-Benzyloxy-2-{[2-biphenyl-4-yl-6-(4-methylpiperidin-1-yl)pyrimidine-4-carbonyl]amino}propionic acid] | 2.4 | 67.4 | 28.6 |
